Laboratory results from patent publication US20110152236A1 (SANOFI-AVENTIS, priority 2008, published 2011).
Where two headings read alike, the source gives them in different places.

Tests used:
cannabinoid CB1 receptor [1] = biological target: T1, cannabinoid CB1 receptor (Mus musculus, UniProt P47746); experiment: model of inhibition of gastrointestinal transit induced by racemic CP55,940 in mice; format: in vivo; conditions: 1 mg/kg per os; 3 hours after administration of the product; CP55,940 0.15 mg/kg ip; male CD1 mice
T1 construct: from tissue; host or cells: whole animal (mice; male CD1 mice in the gastrointestinal transit model)
Experimental: The antagonistic activity of the compounds was also shown by means of the model of inhibition of gastrointestinal transit induced by racemic CP55,940 (1RS,3RS,4RS-3-[hydroxy-2-(1,1-dimethylheptyl)phenyl]-4-(3-hydroxypropyl)cyclohexan-1-ol) in mice, according to the method described by Rinaldi-Carmona et al., J. Pharmacol, Exp. Ther. 2004, 310, 905-914. Briefly, male CD1 mice receive the test product per os 30 minutes or 2 hours before administration of the racemic CP55,940 agonist (1RS,3RS,4RS-3-[hydroxy-2-(1,1-dimethylheptyl)phenyl]-4-(3-hydroxypropyl)cyclohexan-1-ol) (0.15 mg/kg ip in 10% Cremophor). After a further 30 minutes, the animals receive a charcoal bolus po. Thirty minutes later, the animals are euthanized (CO2/O2) and the intestine is dissected. The progression of the charcoal bolus in the intestine is expressed as percentage of the total length of the intestine.

cannabinoid CB1 receptor [2] = biological target: T1, cannabinoid CB1 receptor; experiment: model of hypothermia induced by cannabinoid CB1 receptor agonist racemic CP55,940 in mice; format: in vivo; conditions: 3 mg/kg po, hypothermia induced by CP55,940 1.25 mg/kg
Experimental: Other tests consisting in measuring the in vivo activity of the compounds of the invention were carried out. The antagonist activity of said compounds was shown by means of the model of hypothermia induced by a cannabinoid CB1 receptor agonist (racemic CP55,940 (1RS,3RS,4RS)-3-[hydroxy-2-(1,1-dimethylheptyl)phenyl]-4-(3-hydroxypropypcyclohexan-1-ol) at a dose of 1.25 mg/kg, in mice, according to the method described by R. G. Pertwee in Marijuana 84, Harvey D. J. eds, Oxford IRL Press, 263-277 (1985).

human CB1 receptor = biological target: T2, human CB1 receptor (Homo sapiens, UniProt P21554); experiment: intracellular cyclic AMP test in U373MG cells (HTRF cAMP Dynamic Kit); format: cell-based
T2 construct: U373MG cells naturally expressing the human CB1 receptor; endogenous in cells; host or cells: U373MG cells
Experimental: The compounds according to the invention were the subject of pharmacological tests for determining the activity with respect to human cannabinoid CB1-type receptors. The efficacy of the compounds of formula (I) was determined in a functional test which measures cannabinoid CB1 receptor activity (intracellular cyclic AMP test). The test for detecting intracellular cyclic AMP in U373MG cells naturally expressing the human CB1 receptor was carried out as described in the following reference: Bouaboula et al., 1995, J. Biol. Chem. 270:13973-13980. The HTRF cAMP Dynamic Kit from CisBio was used to quantify the intracellular cyclic AMP. In this test, the IC50 values are between 0.001 μM and 2 μM.

[3] = U373MG cells naturally expressing the human CB1 receptor, intracellular cyclic AMP, read-out: IC50

T1 sequence (P47746 whole entry): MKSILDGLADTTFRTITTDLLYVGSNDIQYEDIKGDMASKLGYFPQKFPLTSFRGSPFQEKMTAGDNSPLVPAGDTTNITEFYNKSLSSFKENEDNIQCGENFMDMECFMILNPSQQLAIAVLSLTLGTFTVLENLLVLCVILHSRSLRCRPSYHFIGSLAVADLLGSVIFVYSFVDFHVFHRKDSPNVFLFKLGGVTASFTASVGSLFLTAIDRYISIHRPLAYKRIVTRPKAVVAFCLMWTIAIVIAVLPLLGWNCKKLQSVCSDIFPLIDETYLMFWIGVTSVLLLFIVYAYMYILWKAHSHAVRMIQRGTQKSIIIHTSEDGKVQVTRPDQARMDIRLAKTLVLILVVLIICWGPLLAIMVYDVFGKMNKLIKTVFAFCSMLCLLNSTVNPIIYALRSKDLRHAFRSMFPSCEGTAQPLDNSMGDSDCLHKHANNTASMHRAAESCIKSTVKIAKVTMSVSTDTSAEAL
T2 sequence (P21554 whole entry): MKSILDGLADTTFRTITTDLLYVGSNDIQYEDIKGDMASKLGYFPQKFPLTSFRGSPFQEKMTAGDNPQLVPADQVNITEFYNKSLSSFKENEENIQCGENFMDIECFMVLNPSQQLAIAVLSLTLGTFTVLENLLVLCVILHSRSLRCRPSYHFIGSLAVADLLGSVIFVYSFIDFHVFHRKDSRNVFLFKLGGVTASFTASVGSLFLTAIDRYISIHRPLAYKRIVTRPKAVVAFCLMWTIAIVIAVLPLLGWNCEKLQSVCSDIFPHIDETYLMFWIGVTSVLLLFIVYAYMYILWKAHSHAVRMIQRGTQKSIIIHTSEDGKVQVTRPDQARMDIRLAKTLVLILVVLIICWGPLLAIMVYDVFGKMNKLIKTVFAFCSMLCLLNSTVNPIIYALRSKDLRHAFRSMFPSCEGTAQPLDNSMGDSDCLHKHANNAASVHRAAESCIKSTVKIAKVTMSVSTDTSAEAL

melting point [°C]	percentage inhibition (cannabinoid CB1 receptor [2]) [%]	IC50 (human CB1 receptor; [3]) [nM]	Compound	percentages of inhibition (cannabinoid CB1 receptor [1]) [%]	IC50 (human CB1 receptor) [nM]
202	32		CS(=O)(=O)N(c1cccc(C(=O)Nc2ccccn2)c1)C1CN(C(c2ccc(Cl)cc2)c2ccc(Cl)cc2)C1 [Compound 7, 3-[{1-[Bis(4-chlorophenyl)methyl]azetidin-3-yl}(methylsulphonyl)amino]-N-(pyridin-2-yl)benzamide]	68	
		6	CS(=O)(=O)N(c1cc(F)cc(C(=O)Nc2ccccn2)c1)C1CN(C(c2ccc(Cl)cc2)c2ccc(Cl)cc2)C1 [Compound 18, 3-[{1-[bis(4-chlorophenyl)methyl]azetidin-3-yl}(methylsulphonyl)amino]-5-fluoro-N-(pyridin-2-yl)benzamide]		
264		134	CS(=O)(=O)N(c1cccc(C(=O)NCCn2cccn2)c1)C1CN(C(c2ccc(Cl)cc2)c2ccc(Cl)cc2)C1 [Compound 15, 3-[{1-[bis(4-chlorophenyl)methyl]azetidin-3-yl}(methylsulphonyl)amino]-N[2-(1H-pyrazol-1-yl)ethyl]benzamide]		
			CC(NC(=O)c1cc(F)cc(N(C2CN(C(c3ccc(Cl)cc3)c3ccc(Cl)cc3)C2)S(C)(=O)=O)c1)c1ccccn1 (centres unmarked) [Compound 39]	66	33
218	28	6	CS(=O)(=O)N(c1cccc(C(=O)Nc2ccon2)c1)C1CN(C(c2ccc(Cl)cc2)c2ccc(Cl)cc2)C1 [Compound 5, 3-[{1-[bis(4-chlorophenyl)methyl]azetidin-3-yl}(methylsulphonyl)amino]-N-(isoxazol-3-yl)-benzamide]	82	
			CS(=O)(=O)N(c1cc(F)cc(C(=O)Nc2cc(C#N)ccn2)c1)C1CN(C(c2ccc(Cl)cc2)c2ccc(Cl)cc2)C1 [Compound 34]	46	20
			CS(=O)(=O)N(c1cc(F)cc(C(=O)NCc2ccc(=O)[nH]c2)c1)C1CN(C(c2ccc(Cl)cc2)c2ccc(Cl)cc2)C1 [Compound 47]	68	9
208		170	CS(=O)(=O)N(c1cccc(C(=O)Nc2cc(O)ccn2)c1)C1CN(C(c2ccc(Cl)cc2)c2ccc(Cl)cc2)C1 [Compound 11, 3-[{1-[bis(4-chlorophenyl)methyl]azetidin-3-yl}(methylsulphonyl)amino]-N-(4-hydroxypyridin-2-yl)benzamide]		
255		40	CS(=O)(=O)N(c1cccc(C(=O)Nc2nonc2N)c1)C1CN(C(c2ccc(Cl)cc2)c2ccc(Cl)cc2)C1 [Compound 10, N-(4-amino-1,2,5-oxadiazol-3-yl)-3-[{1-[bis(4-chlorophenyl)methyl]azetidin-3-yl}(methylsulphonyl)amino]benzamide]		
